In ChEMBL document CHEMBL1143807, “Design and synthesis of oxime ethers of alpha-acyl-beta-phenylpropanoic acids as PPAR dual agonists” (Bioorg Med Chem Lett, 2007):

Assays:
[1] = target: T1, Peroxisome proliferator-activated receptor gamma (Homo sapiens, UniProt P37231)
T1 sequence (P37231 whole entry): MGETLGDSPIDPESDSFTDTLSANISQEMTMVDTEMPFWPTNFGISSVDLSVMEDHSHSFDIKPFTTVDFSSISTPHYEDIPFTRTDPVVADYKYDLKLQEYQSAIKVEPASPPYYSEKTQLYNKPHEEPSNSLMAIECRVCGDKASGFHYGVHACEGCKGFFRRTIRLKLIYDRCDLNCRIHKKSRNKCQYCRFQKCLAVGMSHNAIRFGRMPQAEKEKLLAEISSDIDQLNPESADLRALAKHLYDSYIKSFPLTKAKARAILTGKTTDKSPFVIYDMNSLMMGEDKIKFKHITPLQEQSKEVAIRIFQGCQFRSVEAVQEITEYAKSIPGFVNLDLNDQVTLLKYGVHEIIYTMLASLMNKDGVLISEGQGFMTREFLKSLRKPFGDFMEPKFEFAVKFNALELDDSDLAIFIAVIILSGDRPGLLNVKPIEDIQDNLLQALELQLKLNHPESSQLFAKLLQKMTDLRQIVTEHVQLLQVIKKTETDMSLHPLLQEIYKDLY
Description: Agonist activity at human PPARgamma in HepG2 cells by PPAR-GAL4 transactivation assay

[2] = target: T2, Peroxisome proliferator-activated receptor alpha (Homo sapiens, UniProt Q07869); assay: Agonist activity at human PPARalpha in HepG2 cells by PPAR-GAL4 transactivation assay; type: functional, cell-based
T2 sequence (Q07869 whole entry): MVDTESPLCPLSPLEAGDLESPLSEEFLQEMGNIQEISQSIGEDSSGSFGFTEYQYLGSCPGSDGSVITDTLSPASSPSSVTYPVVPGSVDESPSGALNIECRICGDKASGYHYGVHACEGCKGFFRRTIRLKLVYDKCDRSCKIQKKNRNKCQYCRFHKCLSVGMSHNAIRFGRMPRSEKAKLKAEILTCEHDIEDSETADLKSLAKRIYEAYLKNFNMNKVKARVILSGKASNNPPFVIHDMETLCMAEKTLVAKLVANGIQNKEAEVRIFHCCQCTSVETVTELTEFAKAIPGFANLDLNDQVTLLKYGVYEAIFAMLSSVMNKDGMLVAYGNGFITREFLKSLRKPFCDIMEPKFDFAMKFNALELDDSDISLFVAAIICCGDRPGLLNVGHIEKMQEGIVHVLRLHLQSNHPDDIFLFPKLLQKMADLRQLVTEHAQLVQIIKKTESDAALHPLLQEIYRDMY

Mus musculus [3] = assay: Decrease in plasma glucose level in db/db mouse at 10 mg/kg, po; type: functional; set-up: scale not given: the % may be the effect or the level left
[4] = Clearance in Sprague-Dawley rat at 5 mg/kg, iv; type: ADME, organism-based; set-up: dose 5 mg/kg, route intravenous; settings: in vivo
Mus musculus [5] = assay: Decrease in plasma triglyceride level in db/db mouse at 10 mg/kg, po; type: functional; set-up: scale not given: the % may be the effect or the level left
Mus musculus [6] = assay: Decrease in plasma glucose level in db/db mouse at 1 mg/kg, po; type: functional; set-up: scale not given: the % may be the effect or the level left
[7] = Volume of distribution in Sprague-Dawley rat at 5 mg/kg, iv; type: ADME, organism-based; set-up: dose 5 mg/kg, route intravenous; settings: in vivo, read-out: Vdss
[8] = Cmax in Sprague-Dawley rat at 10 mg/kg, po; type: ADME, organism-based; set-up: dose 10 mg/kg, route oral; settings: in vivo
[9] = AUC (0-24 hrs) in Sprague-Dawley rat at 10mg/kg, po; type: ADME, organism-based; set-up: dose 10 mg/kg, time < 24 hr, route oral; settings: plasma
[10] = Bioavailability in Sprague-Dawley rat at 10 mg/kg, po; type: ADME, organism-based; settings: in vivo
[11] = Half life in Sprague-Dawley rat at 10 mg/kg, po; type: ADME, organism-based; set-up: dose 10 mg/kg, route oral; settings: in vivo
[12] = Tmax in Sprague-Dawley rat at 10 mg/kg, po; type: ADME, organism-based; set-up: dose 10 mg/kg, route oral; settings: in vivo
[13] = AUC (0-24 hrs) in Sprague-Dawley rat at 5 mg/kg, iv; type: ADME, organism-based; set-up: time < 24 hr, dose 5 mg/kg, route intravenous; settings: plasma
Mus musculus [14] = assay: Decrease in plasma triglyceride level in db/db mouse at 1 mg/kg, po; type: functional; set-up: scale not given: the % may be the effect or the level left
Mus musculus [15] = assay: Decrease in plasma triglyceride level in db/db mouse at 0.1 mg/kg, po; type: functional; set-up: scale not given: the % may be the effect or the level left
Mus musculus [16] = assay: Decrease in plasma glucose level in db/db mouse at 0.1 mg/kg, po; type: functional; set-up: scale not given: the % may be the effect or the level left
[17] = Half life in Sprague-Dawley rat at 5 mg/kg, iv; type: ADME, organism-based; set-up: dose 5 mg/kg, route intravenous; settings: in vivo

**Q.** Which results are given for `C/C(=N/OCc1ccc(F)cc1)C(Cc1ccc(OCCc2nc(-c3ccccc3)oc2C)cc1)C(=O)O` (stereo not given)?
**A.** EC50 [1]: 5 nM; EC50 [2]: 596 nM

**Q.** What does the source list for `CCO/N=C(\C)C(Cc1ccc(OCc2nc(-c3ccccc3)oc2C)cc1)C(=O)O` (stereo not given)?
**A.** EC50 [1]: 4 nM; EC50 [2]: 91 nM

**Q.** Which results are given for `CCO/N=C(\C)C(Cc1ccc(OCc2nc(-c3ccc(F)cc3)oc2C)cc1)C(=O)O` (stereo not given)?
**A.** EC50 [1]: 6.8 nM; EC50 [2]: 12 nM

**Q.** Which EC50 [1] does the source give for `C/C(=N\OCCF)C(Cc1ccc(OCc2nc(-c3ccc(F)cc3)oc2C)cc1)C(=O)O` (stereo not given) here?
**A.** 7.7 nM

**Q.** What about the EC50 [2] of the same compound?
**A.** 23 nM

**Q.** Which EC50 [1] does the source give for `CCO/N=C(\C)C(Cc1ccc(OCCc2nc(-c3ccc(F)cc3)oc2C)cc1)C(=O)O` (stereo not given) here?
**A.** 3 nM

**Q.** And the EC50 [2]?
**A.** 11.5 nM

**Q.** For `CCCO/N=C(\C)C(Cc1ccc(OCCc2nc(-c3ccc(F)cc3)oc2C)cc1)C(=O)O` (stereo not given), which EC50 [1] is on record?
**A.** 2.1 nM

**Q.** And the EC50 [2]?
**A.** 4 nM

**Q.** For `C/C(=N\OCCF)C(Cc1ccc(OCCc2nc(-c3ccc(F)cc3)oc2C)cc1)C(=O)O` (stereo not given), which EC50 [1] is on record?
**A.** 2.9 nM

**Q.** And the EC50 [2]?
**A.** 3.5 nM

**Q.** Which EC50 [1] does the source give for `CCCO/N=C(\C)C(Cc1ccc(OCc2nc(C(C)C)oc2C)cc1)C(=O)O` (stereo not given) here?
**A.** 5 nM

**Q.** And the EC50 [2]?
**A.** 105 nM

**Q.** Which results are given for `CCO/N=C(\C)C(Cc1ccc(OCCc2nc(C(C)C)oc2C)cc1)C(=O)O` (stereo not given)?
**A.** EC50 [1]: 20 nM; EC50 [2]: 139 nM

**Q.** With `CCCO/N=C(\C)C(Cc1ccc(OCCc2nc(C(C)C)oc2C)cc1)C(=O)O` (stereo not given) as the compound, how does the EC50 [1] read?
**A.** 5.2 nM

**Q.** What about the EC50 [2] of the same compound?
**A.** 10 nM

**Q.** Which results are given for `CCCCO/N=C(\C)C(Cc1ccc(OCCc2nc(-c3ccccc3)oc2C)cc1)C(=O)O` (stereo not given)?
**A.** EC50 [1]: 0.19 nM; EC50 [2]: 1.3 nM

**Q.** What does the source list for `C/C(=N\OCC1CC1)C(Cc1ccc(OCCc2nc(-c3ccccc3)oc2C)cc1)C(=O)O` (stereo not given)?
**A.** EC50 [1]: 0.36 nM; EC50 [2]: 3.1 nM

**Q.** Which EC50 [1] does the source give for `CC/C(=N\OC)C(Cc1ccc(OCCc2nc(-c3ccccc3)oc2C)cc1)C(=O)O` (stereo not given) here?
**A.** 0.31 nM

**Q.** What about the EC50 [2] of the same compound?
**A.** 32 nM

**Q.** With `CCO/N=C(\CC)C(Cc1ccc(OCCc2nc(-c3ccccc3)oc2C)cc1)C(=O)O` (stereo not given) as the compound, how does the EC50 [1] read?
**A.** 0.1 nM

**Q.** And the EC50 [2]?
**A.** 26 nM

**Q.** For `CO/N=C(\C)C(Cc1ccc(OCCc2nc(-c3ccccc3)oc2C)cc1)C(=O)O` (stereo not given), which EC50 [1] is on record?
**A.** 2.1 nM

**Q.** And the EC50 [2]?
**A.** 19 nM

**Q.** For `CCCO/N=C(\C)C(Cc1ccc(OCCc2nc(-c3ccccc3)oc2C)cc1)C(=O)O` (stereo not given), which EC50 [1] is on record?
**A.** 0.55 nM

**Q.** And the EC50 [2]?
**A.** 4.9 nM

**Q.** For `CCO/N=C(\C)C(Cc1ccc(OCc2nc(C(C)C)oc2C)cc1)C(=O)O` (stereo not given), which EC50 [1] is on record?
**A.** 48 nM

**Q.** And the EC50 [2]?
**A.** 1240 nM

**Q.** For `CCCO/N=C(\C)C(Cc1ccc(OCc2nc(-c3ccc(F)cc3)oc2C)cc1)C(=O)O` (stereo not given), which EC50 [1] is on record?
**A.** 28 nM

**Q.** What about the EC50 [2] of the same compound?
**A.** 11.7 nM

**Q.** Which results are given for `CCO/N=C(\C)C(Cc1ccc(OCCc2nc(-c3ccccc3)oc2C)cc1)C(=O)O` (stereo not given)?
**A.** EC50 [1]: 1 nM; EC50 [2]: 12 nM

**Q.** Which results are given for `C/C(=N\OCC(C)C)C(Cc1ccc(OCCc2nc(-c3ccccc3)oc2C)cc1)C(=O)O` (stereo not given)?
**A.** EC50 [1]: 0.3 nM; EC50 [2]: 2.2 nM

**Q.** Which EC50 [1] does the source give for `C/C(=N\OCc1ccc(F)cc1)C(Cc1ccc(OCCc2nc(-c3ccccc3)oc2C)cc1)C(=O)O` (stereo not given) here?
**A.** 0.54 nM

**Q.** What about the EC50 [2] of the same compound?
**A.** 10.6 nM

**Q.** With `CCCO/N=C(\C)C(Cc1ccc(OCc2nc(-c3ccccc3)oc2C)cc1)C(=O)O` (stereo not given) as the compound, how does the Activity (Mus musculus [3]) read?
**A.** 73%

**Q.** And the clearance [4]?
**A.** 0.8 mL/min/kg

**Q.** What about the EC50 [1] of the same compound?
**A.** 13 nM

**Q.** What about the Activity (Mus musculus [5]) of the same compound?
**A.** 58%

**Q.** And the Activity (Mus musculus [6])?
**A.** 56%

**Q.** And the Vd [7]?
**A.** 0.329 L/kg

**Q.** And the Cmax [8]?
**A.** 22600 ng/mL

**Q.** What about the AUC(0-t) at 24 h [9] of the same compound?
**A.** 162 µg·h/mL

**Q.** What about the bioavailability [10] of the same compound?
**A.** 75.5%

**Q.** And the half-life [11]?
**A.** 8.05 h

**Q.** What about the Tmax [12] of the same compound?
**A.** 0.5 h

**Q.** And the AUC(0-t) at 24 h [13]?
**A.** 113 µg·h/mL

**Q.** What about the EC50 [2] of the same compound?
**A.** 19 nM

**Q.** And the Activity (Mus musculus [14])?
**A.** 41%

**Q.** What about the Activity (Mus musculus [15]) of the same compound?
**A.** 43%

**Q.** What about the Activity (Mus musculus [16]) of the same compound?
**A.** 8%

**Q.** What about the half-life [17] of the same compound?
**A.** 5.93 h

**Q.** Which results are given for `CN(CCOc1ccc(CC2SC(=O)NC2=O)cc1)c1ccccn1` (stereo not given) [ROSIGLITAZONE]?
**A.** Activity (Mus musculus [3]): 65%; Activity (Mus musculus [5]): 65%

**Q.** Which results are given for `CCO[C@@H](Cc1ccc(OCCc2ccc(OS(C)(=O)=O)cc2)cc1)C(=O)O` [TESAGLITAZAR]?
**A.** EC50 [1]: 3530 nM; Activity (Mus musculus [6]): 68%; EC50 [2]: 9800 nM; Activity (Mus musculus [14]): 38%
